{"source": "patent US10005815B2", "about": "“Biologically cleavable tetrapeptide linking agents” (Arrowhead Madison Inc., priority 2015, dated 2018)", "format_in_all_cases": "biochemical", "key": {"human liver S9 extract": {"system": "human liver S9 extract", "assay": "Digestion with human liver S9 extract", "settings": "normalized to compound 23", "description": "(§1) Proteolytic digestion experiments were carried out at a fixed substrate concentration (0.51 μmol) using liver lysosomal (enzyme) extract (0.45 μg/μL) in a 25 mM MES solution buffered to pH 5 containing 1% CHAPS and 1.8 mM DTT incubated at 37° C. Enzyme extract was activated in the presence of DTT for 15 minutes at 37° C. prior to addition of AENA labeled peptide substrates. At various time points, up to 26 h, 20 μL aliquots were removed and acidified to a pH of 3 with TFA. Analysis of fractions was performed using HPLC with a Aquasil C18 reverse-phase column (250×4.6, Thermofisher, Waltham, Mass.), monitored at 390 nm and 335 nm for AENA and EDANS respectively. Elution was performed with a gradient of acetonitrile and water buffered with 0.1% formic acid. Generation of unmodified reporter molecule was measured. To minimize freeze thaw cycles the lysosomal extract was dispensed into multiple aliquots prior to storage at −80° C. A new aliquot was employed for each study and used immediately upon thawing. Lysosomal extract was sourced from female Hans Wistar rats by differential density gradient centrifugation (Graham et al. 2000). Protein concentration of lysosomal extract was determined by standard BCA protein assay protocols. Compound 60 was used for normalization of velocity between experiments (Tables 2-4). […] Normalized sample velocity was calculated as: [(average compound 60 velocity[…]experimental compound 60 velocity)]×sample experimental velocity.\n(§2) The observed rates of cleavage were not dependent on the source of proteolytic enzymes. The order of increasing velocity (23>30>37>42) was maintained when digested using commercially available rat and human liver S9 extract (Xenotech LLC, Lenexa, Kans.) (Table 5). Thus rates of cleavage are expected to be similar across different species and cell types."}, "rat liver S9 extract": {"system": "rat liver S9 extract", "assay": "Digestion with rat liver S9 extract", "settings": "normalized to compound 23", "description": "as §1, §2"}, "[1]": {"system": "liver lysosomal (enzyme) extract", "assay": "Digestion assay with rat liver lysosomal extract", "settings": "for Sample Velocity / Normalized Velocity: AENA substrates; for Sample Velocity: linear rate of reporter generation at <50% completion, pH 5, 37° C.; for Normalized Velocity: normalized with compound 60 velocity (average 123.8 nmol/h); for Relative Velocity, Lysosomal Extract: normalized to compound 23", "description": "Various amino acid combinations, tetrapeptides, were used to link various first moieties (R^5) and an AENA report group second compound (R^6) to form assay substrates (substrates). Cleavage rate of the peptides were evaluated by analysis of digestion of the substrates in the presence of rat lysosomal extract.\nReporting groups were coupled to the C-terminus of the peptide substrates as described above for UV-vis monitoring to explore the influence of amino acid sequence on kinetics of peptide degradation by HPLC. N-(2-aminoethyl)-4-nitroaniline (AENA) or N-(aminoethyl)-5-napthylamine-1-sulfonic acid (EDANS) were used as reporting groups for HPLC monitoring as neither absorptivity nor lambda maximum were affected for either after cleavage from the peptide. The N-terminus of each peptide substrate was modified with either methoxy polyethylene glycol (PEG12) or N-acetyl galactosamine (NAG(OR)3) (FIG. 1).\nProteolytic digestion experiments were carried out at a fixed substrate concentration (0.51 μmol) using liver lysosomal (enzyme) extract (0.45 μg/μL) in a 25 mM MES solution buffered to pH 5 containing 1% CHAPS and 1.8 mM DTT incubated at 37° C. Enzyme extract was activated in the presence of DTT for 15 minutes at 37° C. prior to addition of AENA labeled peptide substrates. At various time points, up to 26 h, 20 μL aliquots were removed and acidified to a pH of 3 with TFA. Analysis of fractions was performed using HPLC with a Aquasil C18 reverse-phase column (250×4.6, Thermofisher, Waltham, Mass.), monitored at 390 nm and 335 nm for AENA and EDANS respectively. Elution was performed with a gradient of acetonitrile and water buffered with 0.1% formic acid. Generation of unmodified reporter molecule was measured. To minimize freeze thaw cycles the lysosomal extract was dispensed into multiple aliquots prior to storage at −80° C. A new aliquot was employed for each study and used immediately upon thawing. Lysosomal extract was sourced from female Hans Wistar rats by differential density gradient centrifugation (Graham et al. 2000). Protein concentration of lysosomal extract was determined by standard BCA protein assay protocols. […]\nRate (also called velocity of degradation or velocity) was extrapolated during early linear turnover (Table 2). As used herein, rate is defined as the linear rate of reporting group generation at less than 50% completion (digestion rate was assumed to be linear at less than 50% completion). For substrates in which cleavage deviated from consecutive first order kinetics, the percent of reporting group liberated at the endpoint of digestion was used as a metric for comparison."}}, "note": "Non-standard residues stand in square brackets, D forms with d. Residues, ends and D or L forms follow the SMILES beside them. *: point of attachment. CH3O(CH2CH2O)11CH2CH2CO = COCCOCCOCCOCCOCCOCCOCCOCCOCCOCCOCCOCCC(=O)*; X1 = O=[N+]([O-])c1ccc(NCCN*)cc1; Cit = NC(=O)NCCC[C@H](N)C(=O)O"}
{"compound": "COCCOCCOCCOCCOCCOCCOCCOCCOCCOCCOCCOCCC(=O)N[C@@H](CCCNC(N)=O)C(=O)N[C@@H](C)C(=O)N1CCC[C@H]1C(=O)NCCNc1ccc([N+](=O)[O-])cc1", "note": "[Compound 42, PEG12-CitAP-AENA]", "values": [{"measurement": "Relative Velocity, HUMAN S9 Extract", "setting": "human liver S9 extract", "result": 1.7}, {"measurement": "Relative Velocity, RAT S9 Extract", "setting": "rat liver S9 extract", "result": 0.6}]}
{"compound": "COCCOCCOCCOCCOCCOCCOCCOCCOCCOCCOCCOCCC(=O)N[C@@H](Cc1ccccc1)C(=O)N[C@@H](CCCNC(N)=O)C(=O)N[C@@H](Cc1ccccc1)C(=O)N1CCC[C@H]1C(=O)NCCNc1ccc([N+](=O)[O-])cc1", "note": "[Compound 23, PEG12-FCitFP-AENA] ({CH3O(CH2CH2O)11CH2CH2CO}-F[Cit]FP-X1)", "values": [{"measurement": "Relative Velocity, HUMAN S9 Extract", "setting": "human liver S9 extract", "result": 100.0}, {"measurement": "Relative Velocity, RAT S9 Extract", "setting": "rat liver S9 extract", "result": 100.0}]}
{"compound": "NAG(OAc)3-FCitAP- AENA [Compound 30]", "values": [{"measurement": "Sample Velocity", "setting": "[1]", "result": 54.3, "unit": "nmol/h"}, {"measurement": "Normalized Velocity", "setting": "[1]", "result": 62.0, "unit": "nmol/h"}, {"measurement": "% Released at Endpoint (21 hr)", "setting": "[1]", "result": 96.5, "unit": "%"}, {"measurement": "Relative Velocity, Lysosomal Extract", "setting": "[1]", "result": 32.1}, {"measurement": "Relative Velocity, HUMAN S9 Extract", "setting": "human liver S9 extract", "result": 45.7}, {"measurement": "Relative Velocity, RAT S9 Extract", "setting": "rat liver S9 extract", "result": 28.3}]}
{"compound": "NAG(OAc)3-ACitAP- AENA [Compound 37]", "values": [{"measurement": "Sample Velocity", "setting": "[1]", "result": 11.8, "unit": "nmol/h"}, {"measurement": "Normalized Velocity", "setting": "[1]", "result": 13.5, "unit": "nmol/h"}, {"measurement": "% Released at Endpoint (21 hr)", "setting": "[1]", "result": 44.2, "unit": "%"}, {"measurement": "Relative Velocity, Lysosomal Extract", "setting": "[1]", "result": 7.0}, {"measurement": "Relative Velocity, HUMAN S9 Extract", "setting": "human liver S9 extract", "result": 7.1}, {"measurement": "Relative Velocity, RAT S9 Extract", "setting": "rat liver S9 extract", "result": 3.3}]}
